From article PMC5550456, “Vitamin B12 as a carrier of peptide nucleic acid (PNA) into bacterial cells” (Scientific Reports, 2017)
Where no end group is shown, it is not given here.

Assays:
some mammalian cells = conditions: cited from earlier work
From the text: (§1) The most serious drawback, which currently precludes the use of this approach, is poor delivery of the oligonucleotides into bacterial cells. The bacterial cell wall prevents the efficient uptake of short oligonucleotides from the environment[14] and non-invasive delivery of PNAs is extremely difficult. To overcome this problem, chemical conjugation of PNA to a variety of cell-penetrating peptides has been tested, [15], [16]. The most commonly used conjugate of PNA with the peptide (KFF)3K was delivered with high efficiency in vitro. However, the activity of (KFF)3K-PNA conjugates was drama ...

[1] = cited from earlier work
From the text: as §1

S. Typhimurium = assay: Effect on bacterial growth (OD600) of S. Typhimurium; format: cell-based, Salmonella Typhimurium; conditions: up to the tested 16 μM concentrations
Description: (§2) The effect of the different PNA conjugates and controls on the red fluorescence of bacterial cells was determined using a standard microdilution method[67] in concentration range 0–16 µM. Cultures grown to exponential phase in Davis Minimal Broth were diluted to ~5 × 10^5 CFU/ml. These cell suspensions were added to wells of sterile 96-well plates containing different concentrations of the tested compounds. Following overnight incubation at 37 °C with shaking, the plates were vigorously shaken (double orbital) for 10 sec and then the cell density (OD600) and fluorescence (λ excitation – 584 nm; λ emission – 610 nm) were measured using a plate reader (Microplate Reader Biotek Synergy H1MFDG). The cell suspensions were also examined by light and fluorescence microscopy using a Nikon Eclipse Ni-U microscope (Figure S1).

[2] = cited from earlier work; remark: listed apart in the source
Description: There was no decrease in OD600 upon overnight treatment with the conjugates (up to the tested 16 μM concentrations). Free vitamin B12 has no antibacterial activity at concentrations up to 100 μg/ml[52].

E. coli = assay: Effect on bacterial growth (OD600) of E. coli; format: cell-based, Escherichia coli; conditions: up to the tested 16 μM concentrations
Description: as §2

[3] = system: mRNA of the reporter gene mrfp1 expressing Red Fluorescent Protein; assay: Inhibition of RFP synthesis (red fluorescence) in E. coli carrying pBBR(rfp); format: cell-based, Escherichia coli K-12 MG1655; conditions: overnight treatment, 0–16 µM
Description: E. coli TG1[58] was used for plasmid construction. For triparental mating, E. coli DH5α carried the helper plasmid pRK2013[59] and E. coli S17-1[60] was the mrfp1 plasmid donor. E. coli K-12 MG1655[61], and Salmonella enterica subsp. enterica serovar Typhimurium LT2-R (rifampicin resistant mutant of wild-type S. Typhimurium LT2[62]) were used in PNA delivery experiments. To prepare inocula, all strains were grown overnight in lysogeny broth (LB) at 37 °C with shaking. […] Cultures were supplemented with appropriate antibiotics to prevent plasmid loss.
as §2, with “Cultures grown to exponential phase in Davis Minimal Broth were diluted to ~5 × 10^5 CFU/ml. These cell suspensions were added to wells of sterile 96-well plates containing different concentrations of the tested compounds.” left out
To obtain relative fluorescence values (RFU), the background media noise was subtracted from each data point for both cell density (OD600) and fluorescence. […]

In the case of KFFKFFKFFK-NH2 [(KFF)3K only], the histamine release (some mammalian cells) is listed as “initiates histamine release” and the “concentration with hemolytic activity” value [1] is listed as 40000 ng/mL.

For cyanocobalamin [vitamin B12], the “bacterial growth, OD600 after overnight incubation” value (S. Typhimurium) is listed as “slight increase of OD600”, the “concentration without antibacterial activity” value [2] is listed as > 100 µg/mL and the “bacterial growth, OD600 after overnight incubation” value (E. coli) is listed as “slight increase of OD600”. For the same substance, the “inhibition of RFP synthesis / mrfp1 expression (in words)” value [3] was “Neither B12–(CH2)12-PNA(scrambled) (Fig. 6) nor free vitamin B12 (data not shown) had any inhibitory effect”.
